Laboratory results published in patent US11583525B2, “Geranylgeranyltransferase I inhibitor for treatment of a PTEN defective cancer” (H. LEE MOFFITT CANCER CENTER AND RESEARCH INSTITUTE, INC., priority 2017, dated 2023).

Columns and labels:
Assay type in all cases: cell-based, human
IP3R3 [1] = assay: IP3R3 degradation in serum-starved and exponentially growing NHFs treated with ATP; conditions: NHFs cultured in presence or absence of serum
FBXL2 and IP3R3 = assay: FBXL2-IP3R3 co-immunoprecipitation after ATP stimulation; conditions: ATP for 30 min; particularly upon proteasome inhibition
Method: FIGS. 8A, 8B, 8C, 8D, 8E, 8F, 8G, 8H, 8I, and 8J show Mapping of the FBXL2-binding domain in IP3R3, and evidence that the N-terminal suppressor domain inhibits the IP3R3-FBXL2 interaction. […] Binding of IP3R3 to FBXL2 is indicated with the symbol (+). […] Whole-cell lysates (WCL) were immunoprecipitated (IP) with anti-Flag resin and proteins were immunoblotted as indicated. This experiment was performed twice. […] Sixteen hours after transfection, cells were incubated with MG132 for 3 h before stimulation with ATP for 30 min Whole-cell lysates were immunoprecipitated (IP) with an anti-HA resin and proteins were immunoblotted as indicated. This experiment was performed twice. […] Cells were subsequently treated with or without ATP for 30 min Whole-cell lysates were immunoprecipitated (IP) with an anti-Flag resin and proteins were immunoblotted as indicated. […] P values were calculated by one-way ANOVA and multiple-comparisons test. Error bars indicate s.e.m. […] It has been shown that removal of the N-terminal suppressor domain (amino acids 1-226) increases the binding of IP3 to the IP3 binding core domain (amino acids 227-579), and IP3 binding evokes conformational changes that open the suppressor domain29-32. These conformational changes may allow FBXL2 to access the degron of IP3R3 (that is, the amino acid region required for binding to FBXL2). […]

IP3R3 [2] = assay: Serum-mediated degradation of IP3R3 in serum-starved, serum re-stimulated NHFs (immunoblotting); conditions: NHFs serum-starved 72 h, re-stimulated with serum; 10 μM MG132, 10 μM Eer1
Method: 24 h post-transfection, cells were treated with MG132 for 3 h before harvesting for immunoprecipitation and immunoblotting as indicated. WCL, whole-cell lysate from untransfected cells. […] After harvesting, cells were lysed, and cell membranes (CM) were isolated and immunoprecipitated with either a normal mouse IgG or an anti-Flag antibody. Subsequently, immunoprecipitates were analysed by immunoblotting as indicated. The results of these experiments (n=2) indicate that FBXL2 is incorporated into a complete SCF ligase that binds its substrate(s) at cellular membranes. […] After harvesting, cells were lysed and cytoplasmic (CYTO) and cell membrane (CM) fractions were isolated and analysed by immunoblotting as indicated. Actin and calnexin are used as markers for cytoplasmic and cell membrane fractions, respectively. This experiment was performed twice. […] 24 h post-transfection, where indicated, cells were treated with MG132 for 3 h before harvesting for immunoprecipitation and immunoblotting. Ned. CUL1, neddylated CUL1. […] The experiment was performed in the presence or absence of MG132 as indicated. Whole-cell lysates were immunoblotted as indicated. The asterisk indicates a non-specific band. This experiment was performed twice. […] P values were calculated by unpaired t-test. Error bars indicate s.e.m. […] Error bars indicate s.e.m. The values represent the ratios between FBXL2 and GAPDH mRNAs. […] Cells were subsequently stimulated with medium containing serum and harvested at the indicated times for immunoblotting. […] Error bars indicate s.e.m. […] Cells were subsequently stimulated with medium containing serum and harvested at the indicated time points for immunoblotting. […] Error bars indicate s.e.m. […] Exon 2 and exon 3 refer to the human FBXL2 gene in NC_000003.12 (GRCh38.p7 (Gene Bank ID: 3129728)). […]
FIGS. 6A, 6B, 6C, 6D, 6E, 6F, 6G, and 6H that the degradation of IP3R3 is dependent on FBXL2 localization to cell membranes and on the segregase activity of p97. […] Samples were analysed by immunoblotting with the indicated antibodies. […]

NHFs = assay: H2O2-induced apoptosis in NHFs transfected with FBXL2 siRNA (automated nuclei count); conditions: pre-treated for 30 min with cyclosporin A (1 μM), H2O2 16 h
Method: FIGS. 1A, 1B, 1C, 1D, 1E, 1F, 1G, and 1H show FBXL2-mediated degradation of IP3R3 controls Ca2+ flux and sensitivity to apoptosis. […] Left, two representative traces. Right, quantification of three independent experiments. P values were calculated by one-way ANOVA and multiple-comparisons test. Error bars indicate s.e.m. 1b, 1c, and 1d, Apoptosis evaluated after treatment with H2O2 using automated nuclei count analysis of twenty randomly chosen fields following a 16 h treatment (1b), immunoblot detection of cleaved PARP and cleaved caspase-3 following a 3 h treatment (1c), and automated analysis of cells with released cytochrome c (Cyt c) from 80 randomly chosen fields following a 3 h treatment (1d). […] P values were calculated by one-way ANOVA and multiple-comparisons test. […] Left, representative traces show concentrations of cytosolic Ca2+ measured with aequorin. Right, quantification of three independent experiments. P values were calculated by one-way ANOVA and multiple-comparisons test. […] Apoptosis shown in 1h was evaluated as in 1b, except that H2O2 treatment was for 5 h. Analysis of cytochrome c release shown in 1i was evaluated as in 1d. P values were calculated by unpaired t-test. […]
Detection of cell death in cell systems. […] The mean fluorescence intensities and standard deviations of […] cytochrome c were evaluated in comparison to corresponding controls. […]

Q: Which “degradation of IP3R3” value (IP3R3 [1]) does the source give for `Nc1ncnc2c1ncn2[C@@H]1O[C@H](COP(=O)(O)OP(=O)(O)OP(=O)(O)O)[C@@H](O)[C@H]1O` [ATP] here?
A: promoted the degradation of IP3R3 in cells cultured in the presence, but not in the absence, of serum

Q: What about the “binding between FBXL2 and IP3R3” value (FBXL2 and IP3R3) of the same molecule?
A: increased the binding between FBXL2 and IP3R3

Q: For `CC1(C)C(N(O)C(=O)Nc2ccc(Cl)cc2)N(c2ccc(Cl)cc2)C(=O)N1CC(=O)N/N=C/C=C/c1ccc([N+](=O)[O-])o1` (centres unmarked) [Eer1, Eeyarestatin 1], which “IP3R3 levels / degradation after serum re-stimulation” value (IP3R3 [2]) is on record?
A: blocked IP3R3 degradation

Q: With `CC(=O)N[C@@H](CSC(=O)[C@]1([C@@H](O)C(C)C)NC(=O)[C@H](C)[C@@H]1O)C(=O)O` [lactacystin] as the molecule, how does the “IP3R3 levels / degradation after serum re-stimulation” value (IP3R3 [2]) read?
A: much less

Q: With cyclosporin-A as the molecule, how does the “sensitization to H2O2 by FBXL2 silencing” value (NHFs) read?
A: abolished the sensitization to H2O2 by FBXL2 silencing
